These results are taken from US12583849B2, “KCNT1 inhibitors and methods of use” (Praxis Precision Medicines, Inc., priority 2020, dated 2026).

The assay addresses T1, KCNT1 (KNa1.1, Slack) (Homo sapiens, UniProt Q5JUK3).
T1 construct: expressed in transfected cells; host or cells: HEK-TREX (tetracycline-inducible cell line)
T1 sequence (Q5JUK3 1-1230): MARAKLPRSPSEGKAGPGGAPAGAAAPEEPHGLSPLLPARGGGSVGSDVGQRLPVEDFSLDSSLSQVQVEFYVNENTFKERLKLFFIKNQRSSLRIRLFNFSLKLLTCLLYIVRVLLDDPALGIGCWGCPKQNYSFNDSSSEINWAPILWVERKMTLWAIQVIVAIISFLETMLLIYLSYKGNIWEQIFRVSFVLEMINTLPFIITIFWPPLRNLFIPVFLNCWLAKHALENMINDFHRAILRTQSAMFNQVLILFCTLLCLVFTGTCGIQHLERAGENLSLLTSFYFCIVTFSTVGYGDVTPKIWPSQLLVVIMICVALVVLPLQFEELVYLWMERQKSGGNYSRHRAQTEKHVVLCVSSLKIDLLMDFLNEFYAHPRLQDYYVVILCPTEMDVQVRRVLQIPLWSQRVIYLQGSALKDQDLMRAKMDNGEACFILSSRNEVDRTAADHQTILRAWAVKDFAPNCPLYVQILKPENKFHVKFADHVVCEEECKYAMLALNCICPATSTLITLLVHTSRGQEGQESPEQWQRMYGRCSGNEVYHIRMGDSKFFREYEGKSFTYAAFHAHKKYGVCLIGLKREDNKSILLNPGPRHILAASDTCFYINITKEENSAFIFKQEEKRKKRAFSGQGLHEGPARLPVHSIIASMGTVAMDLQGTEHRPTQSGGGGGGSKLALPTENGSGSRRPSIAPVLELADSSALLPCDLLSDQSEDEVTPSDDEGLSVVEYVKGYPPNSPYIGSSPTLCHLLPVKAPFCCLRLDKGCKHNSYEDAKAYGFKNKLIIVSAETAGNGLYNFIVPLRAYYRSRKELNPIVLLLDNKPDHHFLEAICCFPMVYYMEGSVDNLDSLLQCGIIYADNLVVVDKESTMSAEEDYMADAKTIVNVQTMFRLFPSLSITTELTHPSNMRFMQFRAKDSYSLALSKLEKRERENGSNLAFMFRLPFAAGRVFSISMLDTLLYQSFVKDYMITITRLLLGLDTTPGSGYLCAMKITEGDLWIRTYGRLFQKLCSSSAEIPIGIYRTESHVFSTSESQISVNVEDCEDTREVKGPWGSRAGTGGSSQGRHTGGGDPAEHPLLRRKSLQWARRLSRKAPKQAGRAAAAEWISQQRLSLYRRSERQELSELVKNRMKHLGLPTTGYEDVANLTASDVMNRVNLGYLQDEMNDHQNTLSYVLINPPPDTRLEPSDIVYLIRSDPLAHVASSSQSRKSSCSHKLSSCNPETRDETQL
The assay is described as follows: KCNT1-WT-Basal Patch Clamp Assay. It counts as cell-based. The conditions noted are these: tetracycline inducible cell line (HEK-TREX); SyncroPatch 384PE automated patch clamp, perforated patch mode, room temperature, step from -80 mV to 0 mV. As for the experimental part:
KCNT1-WT-Basal—Patch Clamp Assay
Inhibition of KCNT1 (KNa1.1, Slack) was evaluated using a tetracycline inducible cell line (HEK-TREX). Currents were recorded using the SyncroPatch 384PE automated, patch clamp system. Pulse generation and data collection were performed with PatchController384 V1.3.0 and DataController384 V1.2.1 (Nanion Technologies). The access resistance and apparent membrane capacitance were estimated using built-in protocols. Current were recorded in perforated patch mode (10 μM escin) from a population of cells. The cells were lifted, triturated, and resuspended at 800,000 cells/ml. The cells were allowed to recover in the cell hotel prior to experimentation. Currents were recorded at room temperature. The external solution contained the following (in mM): NaCl 105, NMDG 40, KCl 4, MgCl2 1, CaCl2 5 and HEPES 10 (pH=7.4, Osmolarity ˜300 mOsm). The extracellular solution was used as the wash, reference and compound delivery solution. The internal solution contained the following (in mM): NaCl 70, KF 70, KCl 10, EGTA 5, HEPES 5 and Escin 0.01 (pH=7.2, Osmolarity ˜295 mOsm). Escin is made at a 5 mM stock in water, aliquoted, and stored at −20° C. The compound plate was created at 2× concentrated in the extracellular solution. The compound was diluted to 1:2 when added to the recording well. The amount of DMSO in the extracellular solution was held constant at the level used for the highest tested concentration. A holding potential of −80 mV with a 100 ms step to 0 mV was used. Mean current was measured during the step to 0 mV. […] The average mean current from 3 sweeps was calculated and the % inhibition of each compound was calculated. The % Inhibition as a function of the compound concentration was fit with a Hill equation to derive IC50, slope, min and max parameters. If KCNT1 inhibition was less than 50% at the highest tested concentration or if an IC50 could not be calculated, then a percent inhibition was reported in place of the IC50.
In this table, “A” indicates IC50 of less than or equal to 1 μM; “B” indicates inhibition of between 1 μM to 20 μM; and “C” indicates inhibition of greater than or equal to 20 μM.
In general terms: Patch clamp records ionic current or voltage across a cell membrane.

`C[C@H](NC(=O)c1cccc(C#N)c1)c1nc(-c2ccnc(C3CC3)c2)no1` [Compound I-88, (S)-3-cyano-N-(1-(3-(2-cyclopropylpyridin-4-yl)-1,2,4-oxadiazol-5-yl)ethyl)benzamide]: the IC50 – broadly, the concentration at which inhibition is half-maximal – is at most 1000 nM.
The same measure for `CC[C@H](NC(=O)Cc1ccccc1)c1nc(-c2ccnc(C(F)(F)F)c2)no1` [Compound I-15, (S)-2-phenyl-N-(1-(3-(2-(trifluoromethyl)pyridin-4-yl)-1,2,4-oxadiazol-5-yl)propyl)acetamide]: at most 1000 nM; for `Cc1ccccc1C(=O)N[C@@H](C)c1nc(-c2ccnc(C3CC3)c2)no1` [Compound I-83, N-[(1S)-1-[3-(2-cyclopropyl-4-pyridyl)-1,2,4-oxadiazol-5-yl]ethyl]-2-methyl-benzamide]: at most 1000 nM; for `C[C@H](NC(=O)[C@H]1CCCC(=O)N1)c1nc(-c2ccnc(C(F)(F)F)c2)no1` [Compound I-34, (R)-6-oxo-N—((S)-1-(3-(2-(trifluoromethyl)pyridin-4-yl)-1,2,4-oxadiazol-5-yl)ethyl)piperidine-2-carboxamide]: at least 20000 nM.
The value for `Cc1cc(C(=O)N[C@@H](C)c2nc(-c3ccnc(C4CC4)c3)no2)ccn1` [Compound I-101, (S)—N-(1-(3-(2-cyclopropylpyridin-4-yl)-1,2,4-oxadiazol-5-yl)ethyl)-2-methyl isonicotinamide] was at most 1000 nM; that for `C[C@H](NC(=O)c1cccc(C(=O)N(C)C)c1)c1nc(-c2ccnc(C3CC3)c2)no1` [Compound I-90, (S)—N1-(1-(3-(2-cyclopropylpyridin-4-yl)-1,2,4-oxadiazol-5-yl)ethyl)-N3,N3-dimethylisophthalamide] was 1000 to 20000 nM.
The value for `C[C@H](NC(=O)c1ccnc(C(F)(F)F)c1)c1nc(-c2ccnc(C(F)(F)F)c2)no1` [Compound I-14, (S)-2-(trifluoromethyl)-N-(1-(3-(2-(trifluoromethyl)pyridin-4-yl)-1,2,4-oxadiazol-5-yl)ethyl)isonicotinamide] was at most 1000 nM.
`C[C@H](NC(=O)c1ccc(C(F)(F)F)cn1)c1nc(-c2ccnc(C(F)(F)F)c2)no1` [Compound I-1, (S)-5-(trifluoromethyl)-N-(1-(3-(2-(trifluoromethyl)pyridin-4-yl)-1,2,4-oxadiazol-5-yl)ethyl)picolinamide] had a half-inhibitory concentration (IC50) of 1000 to 20000 nM.
`C[C@H](NC(=O)C1CCC(F)(F)CC1)c1nc(-c2ccnc(C(F)(F)F)c2)no1` [Compound I-3, (S)-4,4-difluoro-N-(1-(3-(2-(trifluoromethyl)pyridin-4-yl)-1,2,4-oxadiazol-5-yl)ethyl)cyclohexane-1-carboxamide] displayed a half-inhibitory concentration (IC50) of at most 1000 nM.
The same measure for `C[C@H](NC(=O)CN1CCCCC1)c1nc(-c2ccnc(C(F)(F)F)c2)no1` [Compound I-35, (S)-2-(piperidin-1-yl)-N-(1-(3-(2-(trifluoromethyl)pyridin-4-yl)-1,2,4-oxadiazol-5-yl)ethyl)acetamide]: at least 20000 nM.
The same measure for `C[C@H](NC(=O)[C@H]1CC[C@H](C)CC1)c1nc(-c2ccnc(C3CC3)c2)no1` [Compound I-29, (S)—N-(1-(3-(2-cyclopropylpyridin-4-yl)-1,2,4-oxadiazol-5-yl)ethyl)-4-methylcyclohexane-1-carboxamide]: at most 1000 nM.
The value for `C[C@H](NC(=O)[C@H]1CC[C@H](C)CC1)c1nc(-c2ccnc(C(F)(F)F)c2)no1` [Compound I-26, trans-4-methyl-N—((S)-1-(3-(2-(trifluoromethyl)pyridin-4-yl)-1,2,4-oxadiazol-5-yl)ethyl)cyclohexane-1-carboxamide] was at most 1000 nM; that for `C[C@H](NC(=O)[C@H](C)c1ccccc1)c1nc(-c2ccnc(C3CC3)c2)no1` [Compound I-58, (R)—N—((S)-1-(3-(2-cyclopropylpyridin-4-yl)-1,2,4-oxadiazol-5-yl)ethyl)-2-phenylpropanamide] was at most 1000 nM; that for `C[C@H](NC(=O)c1ccncc1)c1nc(-c2ccnc(C(F)(F)F)c2)no1` [Compound I-6, (S)—N-(1-(3-(2-(trifluoromethyl)pyridin-4-yl)-1,2,4-oxadiazol-5-yl)ethyl)isonicotinamide] was at least 20000 nM.
For the molecule `C[C@H](NC(=O)c1ccccc1)c1nc(-c2ccnc(C3CC3)c2)no1` [Compound I-41, (S)—N-(1-(3-(2-cyclopropylpyridin-4-yl)-1,2,4-oxadiazol-5-yl)ethyl)benzamide], the IC50 was at most 1000 nM.
The same measure for `C[C@H](NC(=O)NC(C)(C)C)c1nc(-c2ccnc(C3CC3)c2)no1` [II-7]: at most 1000 nM; for `C[C@H](NC(=O)CN(C)c1ccccc1)c1nc(-c2ccnc(C(F)(F)F)c2)no1` [III-4, (S)-2-(methyl(phenyl)amino)-N-(1-(3-(2-(trifluoromethyl)pyridin-4-yl)-1,2,4-oxadiazol-5-yl)ethyl)acetamide]: at most 1000 nM; for `C[C@H](NC(=O)CC(C)(C)C)c1nc(-c2ccnc(C(F)(F)F)c2)no1` [III-3, (S)-3,3-dimethyl-N-(1-(3-(2-(trifluoromethyl)pyridin-4-yl)-1,2,4-oxadiazol-5-yl)ethyl)butanamide]: 1000 to 20000 nM.
The same measure for `Cc1ccc(C(=O)N[C@@H](C)c2nc(-c3ccnc(C4CC4)c3)no2)cc1` [Compound I-87, (S)—N-(1-(3-(2-cyclopropylpyridin-4-yl)-1,2,4-oxadiazol-5-yl)ethyl)-4-methylbenzamide]: at most 1000 nM; for `C[C@H](NC(=O)c1cccnc1)c1nc(-c2ccnc(C(F)(F)F)c2)no1` [Compound I-11, (S)—N-(1-(3-(2-(trifluoromethyl)pyridin-4-yl)-1,2,4-oxadiazol-5-yl)ethyl)nicotinamide]: 1000 to 20000 nM.
The value for `C[C@H](NC(=O)c1cc2ccc(C(F)(F)F)cc2s1)c1nc(-c2ccnc(C(F)(F)F)c2)no1` [Compound I-25, (S)-6-(trifluoromethyl)-N-(1-(3-(2-(trifluoromethyl)pyridin-4-yl)-1,2,4-oxadiazol-5-yl)ethyl)benzo[b]thiophene-2-carboxamide] was at most 1000 nM; that for `C[C@H](NC(=O)c1ccccc1)c1nc(-c2ccnc(C(F)(F)F)c2)no1` [Compound I-8, (S)—N-(1-(3-(2-(trifluoromethyl)pyridin-4-yl)-1,2,4-oxadiazol-5-yl)ethyl)benzamide] was at most 1000 nM; that for `CC(=O)N1CCC(C(=O)N[C@@H](C)c2nc(-c3ccnc(C(F)(F)F)c3)no2)CC1` [Compound I-73, 1-acetyl-N-[(1S)-1-[3-[2-(trifluoromethyl)-4-pyridyl]-1,2,4-oxadiazol-5-yl]ethyl]piperidine-4-carboxamide] was at least 20000 nM.
